Assay results as given in US12059429B2, “Hornerin: a novel non-VEGF mediated angiogenic protein expressed in both human and mouse angiogenic endothelial cells and human pancreatic cancer cells” (University of Virginia Patent Foundation, priority 2018, dated 2024).

Key:
TCM-treated HUVECs = test: Phage-based ELISA on treated HUVECs with two-way ANOVA; assay type: binding, human
Description: HUVEC were plated in MaxiSorp 96-well plates (NUNC, Rochester, NY, USA) and cultured for 24 hours, at which time the cells were treated with media containing VEGF (VEGFCM) at B-max concentration (Igarashi et al., 2003) or TCM for an additional 24 h. ELISA was initiated by adding 1010 isolated phage to each well for a 1 hour incubation. After three washes with DPBS+0.1% Tween-20 (DPBST), the cells were incubated with horse radish peroxidase (HRP)-tagged anti-M13 antibody (GE Healthcare, Little Chalfont, UK, 27-9421-01; (1:3000)) for 30 min. The plates were washed three additional times (DBPST) then developed with 200 μL 3,3′,5,5′-Tetramethylbenzidine (Sigma) for 10 minutes. The A650 was measured on a microplate reader (Molecular Devices, Sunnyvale, CA, USA).
Absorbance values were corrected by comparison to unmodified control KE phage. […]
As VEGF is highly abundant in the pancreatic tumor milieu, clones were further segregated based on their ability to bind to VEGF-treated HUVECs vs. tumor conditioned media (TCM)-treated HUVECs. […] Enzyme-linked immunoabsorbent assay (ELISA) results were analyzed by two-way analysis of variance (ANOVA) to find clones that consistently bound to HUVECs treated with TCM, but not vehicle control (VC) or VEGF-supplemented control media (VEGFCM; FIGS. 2A and 2B). […]

hornerin [1] = target: T1, hornerin (Homo sapiens, UniProt Q86YZ3); test: Phage display-based functional proteomics (pulldown, MS/MS, anti-hornerin immunoblot); assay type: binding; details: tandem mass spectroscopy of pulldown lysates, confirmed by immunoblot
T1 construct: A unique band in the PTEM 9 lane that was not present in the control sample corresponded to the predicted molecular weight of hornerin; endogenous in cells
T1 sequence (Q86YZ3 whole entry): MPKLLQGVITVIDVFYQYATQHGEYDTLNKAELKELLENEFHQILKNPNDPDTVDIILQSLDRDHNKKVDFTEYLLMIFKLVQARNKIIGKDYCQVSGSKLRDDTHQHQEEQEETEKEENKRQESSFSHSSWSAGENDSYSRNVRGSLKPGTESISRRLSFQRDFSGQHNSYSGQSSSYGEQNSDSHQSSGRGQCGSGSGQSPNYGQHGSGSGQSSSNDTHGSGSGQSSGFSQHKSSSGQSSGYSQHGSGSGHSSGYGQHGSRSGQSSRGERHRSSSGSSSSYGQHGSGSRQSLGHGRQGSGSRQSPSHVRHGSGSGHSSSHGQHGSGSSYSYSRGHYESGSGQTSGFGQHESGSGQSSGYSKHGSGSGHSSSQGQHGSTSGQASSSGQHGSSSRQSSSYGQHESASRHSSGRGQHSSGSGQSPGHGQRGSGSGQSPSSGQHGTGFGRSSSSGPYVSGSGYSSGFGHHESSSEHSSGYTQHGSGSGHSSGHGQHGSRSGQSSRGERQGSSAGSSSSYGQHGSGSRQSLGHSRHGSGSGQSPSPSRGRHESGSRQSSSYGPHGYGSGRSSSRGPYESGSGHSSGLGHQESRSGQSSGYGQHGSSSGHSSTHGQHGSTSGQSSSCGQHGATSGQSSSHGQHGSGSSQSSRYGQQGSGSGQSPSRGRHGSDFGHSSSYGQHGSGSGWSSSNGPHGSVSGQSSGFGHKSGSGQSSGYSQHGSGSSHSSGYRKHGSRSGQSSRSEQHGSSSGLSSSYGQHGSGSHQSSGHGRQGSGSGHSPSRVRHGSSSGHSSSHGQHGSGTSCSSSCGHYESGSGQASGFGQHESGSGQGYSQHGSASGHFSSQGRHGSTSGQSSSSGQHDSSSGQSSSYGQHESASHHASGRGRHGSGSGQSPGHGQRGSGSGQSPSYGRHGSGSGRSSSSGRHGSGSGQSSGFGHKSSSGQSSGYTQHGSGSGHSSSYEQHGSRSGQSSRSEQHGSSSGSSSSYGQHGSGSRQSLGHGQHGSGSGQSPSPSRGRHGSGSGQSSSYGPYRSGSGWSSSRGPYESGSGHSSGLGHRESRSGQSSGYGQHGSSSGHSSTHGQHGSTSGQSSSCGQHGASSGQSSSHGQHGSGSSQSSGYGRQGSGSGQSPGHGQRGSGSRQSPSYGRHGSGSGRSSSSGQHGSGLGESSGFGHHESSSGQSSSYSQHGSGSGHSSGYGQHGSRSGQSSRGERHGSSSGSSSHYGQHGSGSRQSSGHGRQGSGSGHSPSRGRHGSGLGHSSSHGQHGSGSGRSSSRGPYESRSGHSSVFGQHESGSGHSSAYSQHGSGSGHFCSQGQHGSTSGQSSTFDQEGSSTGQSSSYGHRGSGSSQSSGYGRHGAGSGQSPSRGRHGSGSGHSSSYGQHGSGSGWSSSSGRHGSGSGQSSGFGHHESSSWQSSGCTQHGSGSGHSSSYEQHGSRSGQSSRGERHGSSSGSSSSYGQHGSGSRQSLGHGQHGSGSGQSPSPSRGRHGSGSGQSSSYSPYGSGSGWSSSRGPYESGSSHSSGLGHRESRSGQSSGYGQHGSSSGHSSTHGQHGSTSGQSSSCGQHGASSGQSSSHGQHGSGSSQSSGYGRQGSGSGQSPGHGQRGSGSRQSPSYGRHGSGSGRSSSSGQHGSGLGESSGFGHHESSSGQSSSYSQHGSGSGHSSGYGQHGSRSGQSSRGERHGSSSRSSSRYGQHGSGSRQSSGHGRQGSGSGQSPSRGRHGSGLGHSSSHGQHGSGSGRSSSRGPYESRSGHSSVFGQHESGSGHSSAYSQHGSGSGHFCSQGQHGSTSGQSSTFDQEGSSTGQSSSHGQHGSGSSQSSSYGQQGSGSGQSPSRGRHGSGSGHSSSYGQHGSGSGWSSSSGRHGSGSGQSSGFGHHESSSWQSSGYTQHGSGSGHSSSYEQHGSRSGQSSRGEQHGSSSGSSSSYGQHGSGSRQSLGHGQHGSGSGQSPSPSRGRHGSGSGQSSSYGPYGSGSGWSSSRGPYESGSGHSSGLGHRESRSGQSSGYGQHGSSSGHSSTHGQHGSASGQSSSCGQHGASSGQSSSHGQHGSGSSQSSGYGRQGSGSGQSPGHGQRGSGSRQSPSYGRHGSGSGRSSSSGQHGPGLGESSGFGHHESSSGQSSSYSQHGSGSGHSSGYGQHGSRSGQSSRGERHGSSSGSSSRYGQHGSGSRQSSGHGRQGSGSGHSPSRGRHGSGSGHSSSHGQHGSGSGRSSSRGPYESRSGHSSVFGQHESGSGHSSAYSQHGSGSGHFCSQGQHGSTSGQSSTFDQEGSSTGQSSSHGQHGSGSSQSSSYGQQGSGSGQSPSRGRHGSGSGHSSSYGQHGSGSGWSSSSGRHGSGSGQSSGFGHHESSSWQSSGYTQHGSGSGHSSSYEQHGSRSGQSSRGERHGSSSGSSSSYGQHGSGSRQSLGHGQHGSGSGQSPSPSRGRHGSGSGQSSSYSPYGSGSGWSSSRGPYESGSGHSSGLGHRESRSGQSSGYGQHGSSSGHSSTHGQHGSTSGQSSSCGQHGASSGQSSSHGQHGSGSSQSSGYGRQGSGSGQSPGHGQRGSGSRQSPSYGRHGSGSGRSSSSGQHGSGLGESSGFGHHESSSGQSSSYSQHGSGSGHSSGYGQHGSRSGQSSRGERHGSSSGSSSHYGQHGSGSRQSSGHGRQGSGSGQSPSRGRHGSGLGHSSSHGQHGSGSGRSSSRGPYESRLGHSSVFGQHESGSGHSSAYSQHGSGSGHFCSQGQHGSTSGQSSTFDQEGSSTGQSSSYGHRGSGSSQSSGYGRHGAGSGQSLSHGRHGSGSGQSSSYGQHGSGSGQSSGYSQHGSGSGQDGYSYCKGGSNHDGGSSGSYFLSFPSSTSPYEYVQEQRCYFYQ
Description: The gel piece was transferred to a siliconized tube and washed and destained in 200 μL 50% methanol overnight. The gel pieces were dehydrated in acetonitrile, rehydrated in 30 μL of 10 mM dithiolthreitol in 0.1M ammonium bicarbonate, and reduced at room temperature for 0.5 hours. The DTT solution was removed and the sample alkylated in 30 μL 50 mM iodoacetamide in 0.1M ammonium bicarbonate at room temperature for 0.5 hours. The reagent was removed and the gel pieces dehydrated in 100 μL acetonitrile. The acetonitrile was removed and the gel pieces rehydrated in 100 μL 0.1M ammonium bicarbonate. The pieces were dehydrated in 100 μL acetonitrile, the acetonitrile removed and the pieces completely dried by vacuum centrifugation. […]
The LC-MS system consisted of a Thermo Electron Velos Orbitrap ETD mass spectrometer system with a Protana nanospray ion source interfaced to a self-packed 8 cm×75 μm id Phenomenex Jupiter 10 μm C18 reversed-phase capillary column. […] The digest was analyzed using the double play capability of the instrument acquiring full scan mass spectra (Orbitrap, 60 K resolution) to determine peptide molecular weights followed by product ion spectra (ion trap) to determine amino-acid sequence in sequential scans. […]
The data were analyzed by database searching using the Sequest search algorithm within Proteome Discoverer (v1.2) against IPI Human (v3.78, 86,702 entries). […]

hornerin [2] = test: Immunoblot of hornerin in L3.6pl cells treated with EGF; assay type: cell-based, human; details: EGF 1, 10 or 100 ng/mL, 48 hours
hornerin [3] = test: Immunoblot of hornerin in HUVECs treated with growth factors; assay type: cell-based, human; details: 24 hours treatment; growth factors at published B-max concentrations, EGF at increasing concentrations
Description: HUVECs were cultured in 10 cm dishes for 24 hours prior to a change to media containing VEGF (at B-max concentration), TCM, or VC. After 24 hours treatment, the cells were washed with DPBST two times and lysed with radioimmunoprecipitation assay (RIPA) buffer (Thermo Scientific). Lysate protein concentrations were measured by the bicinchoninic acid assay (Pierce, Waltham, MA, USA) and equivalent amounts of protein were loaded into precast 4-15% tris-glycine eXtended (TGX) polyacrylamide gels (Bio-Rad, Hercules, CA, USA). The proteins were resolved by electrophoresis and transferred to nitrocellulose membranes using the iBlot system (Invitrogen, Carlsbad, CA, USA). The membranes were then washed in Tris-buffered saline+1% Tween-20 (TBST), blocked for 30 minutes in TBST+2% milk solution, and incubated overnight at 4° C. with primary antibodies anti-hornerin (Abcam, Cambridge, UK, ab78909; (1:1000)) and anti-HSP90 (Cell Signaling Technology, Danvers, MA, USA, 4877; (1:1000)). The following day the membranes were washed and subsequently incubated with the secondary antibodies anti-goat HRP (R&D Systems, Minneapolis, MN, USA, HAF109; 1:5000) and anti-rabbit HRP (GE Healthcare, NA934V; 1:5000) for 45 minutes at RT. […]
Major constituents of TCM were determined using a Human Angiogenesis Antibody Array (Affymetrix, Santa Clara, CA, USA) per manufacturer's instructions. […]

hornerin [4] = test: Immunoblot of hornerin in human keratinocytes treated with EGF; assay type: cell-based; details: 48 hours

SLLNRMP (listed as Homo sapiens) [PTEM 9]
specificity (fold over vehicle control) among clones binding selectively to TCM-treated HUVECs (TCM-treated HUVECs): highest average specificity
binding partner identified (hornerin [1]): hornerin as the candidate protein

EGF: recombinant human EGF (PeproTech)
hornerin expression in L3.6pl cells (hornerin [2]): concentration-dependent increase in expression
hornerin expression in HUVECs (hornerin [3]): increased
hornerin expression in keratinocytes (hornerin [4]): more modest response
